One compound from US20240009269A1 (priority 2020, published 2024) can be followed below.

One data set has as its system dhBMECs monolayers. The data set can be described thus: Melittin-induced disruption of dhBMEC monolayers (transwell assay). It counts as cell-based, human. As to the method:
Induced pluripotent stem cell (iPSC)-derived brain microvascular endothelial cells (dhBMECs) mimic the barrier function of the human BBB. DhBMECs were differentiated as previously reported. The BC1 iPSC line derived from a healthy individual was used for all experiments. After eleven days of differentiation, cells were detached using Accutase (A1110501, Thermo Fisher Scientific), and seeded onto transwells, glass slides, or type I collagen microchannels coated overnight with 50 μg mL^−1 human placental collagen IV (Catalog Number (Cat. No.) C5533, Sigma-Aldrich) and 25 μg mL^−1 fibronectin from human plasma (Cat. No. F1141, Sigma-Aldrich). Cells have previously been characterized for expression of tight junction proteins, efflux pumps, and nutrient transporters as well as measurements of barrier function including transendothelial electrical resistance (TEER) or solute permeability. Here, cells with TEER of at least 1500 Ω cm2 were used for all experiments. After detachment, cells were cultured in BBB induction medium: human endothelial cell serum-free medium (HESFM) (Cat. No. 11111044, Thermo Fisher Scientific) supplemented with 1% human platelet poor derived serum (Cat. No. P2918, Sigma-Aldrich), 1% penicillin-streptomycin (Cat. No. 15140122, Thermo Fisher Scientific), 2 ng mL^−1 bFGF (Cat. No. 233FB025CF, Fisher Scientific), and 10 μM all-trans retinoic acid (Cat. No R2625, Sigma-Aldrich). After 24 hours, cells were further cultured in BBB maintenance medium: HESFM supplemented with 1% human platelet poor derived serum and 1% penicillin-streptomycin. Human cortical neuron HCN-2 cells (CRL-10742) were obtained from ATCC (Manassas, VA, USA). HCN-2 cells were cultured in DMEM (Cat. No. 31600091, Thermo Fisher Scientific), adjusted to contain 1.5 g L^−1 sodium bicarbonate, 4.5 g L^−1 D-glucose, and supplemented with 10% heat-inactivated FBS (Cat. No. F4135, Sigma-Aldrich), following ATCC recommendations.
Corning transwell supports (Cat. No. 3470) were coated with 25 μg mL^−1 fibronectin and 50 μg mL^−1 collagen IV overnight at 37° C. DhBMECs were seeded on transwells in BBB induction medium at 10^6 cells cm^−2. […] On day 2, the TEER for monolayers was measured using EVOM-2 and STX-100 electrode (World Precision Instruments, Sarasota, FL), and monolayers with TEER>1500 Ω cm2 were used for the permeability experiment. […] After the permeability experiment, the TEER across monolayers was measured. Dextran fluorescence in the receiving chamber and in the initial apical solution (Co) was measured using the Synergy H4 plate reader (Biotek Instruments Inc., Winooski, VT) and was converted to dextran concentrations using the dextran-fluorescein standard curves. The apparent permeability (Papp) was calculated from Formula 1 below: […]

Data set [1] deals with 2D dhBMEC monolayers (ZO1). Kind of data set: Immunocytochemistry of zona occludens-1 in 2D dhBMEC monolayers. It counts as cell-based, human. As to the method:
Antibodies used in the study are described in Table 3. LabTek 8-chamber slides (Cat. No. 155411, Thermo Fisher Scientific) were coated with 25 μg mL^−1 fibronectin and 50 μg mL^−1 collagen IV overnight at 37° C. BC1 cell were seeded in BBB induction medium at 5×10^5 cells cm^−2. On day 1 after seeding, dhBMECs were washed twice with BBB maintenance medium and incubated in the medium overnight. On day 2, the cells were washed twice with BBB maintenance medium and treated with 1.5 μM, 5 μM, and 10 μM of melittin, diluted in the medium, for 2 minutes, 5 minutes, 10 minutes, or 90 minutes. The resulting melittin dosages, calculated as the product of melittin concentration and incubation time, were 3 μM·minutes, 25 μM·minutes, 100 μM minutes, and 450 μM·minutes. A negative control without melittin was included with every experiment. After the melittin incubation, the cells were washed twice with 1×PBS azide and fixed in 3.7% paraformaldehyde solution for 10 minutes or methanol for 15 minutes. The fixed cells were washed with 1×PBS azide and incubated in blocking solution (10% goat serum, 0.3% TritonX-100 in 1×PBS azide) at 4° C. for 1-2 days. The cells were incubated with primary antibodies for 2 hours at room temperature. […]

For the compound `CC[C@H](C)[C@H](NC(=O)CN)C(=O)NCC(=O)N[C@@H](C)C(=O)N[C@H](C(=O)N[C@@H](CC(C)C)C(=O)N[C@@H](CCCCN)C(=O)N[C@H](C(=O)N[C@@H](CC(C)C)C(=O)N[C@H](C(=O)N[C@H](C(=O)NCC(=O)N[C@@H](CC(C)C)C(=O)N1CCC[C@H]1C(=O)N[C@@H](C)C(=O)N[C@@H](CC(C)C)C(=O)N[C@H](C(=O)N[C@@H](CO)C(=O)N[C@@H](Cc1c[nH]c2ccccc12)C(=O)N[C@H](C(=O)N[C@@H](CCCCN)C(=O)N[C@@H](CCCNC(=N)N)C(=O)N[C@@H](CCCCN)C(=O)N[C@@H](CCCNC(=N)N)C(=O)N[C@@H](CCC(N)=O)C(=O)N[C@@H](CCC(N)=O)C(N)=O)[C@@H](C)CC)[C@@H](C)CC)[C@@H](C)O)[C@@H](C)O)C(C)C)C(C)C` [melittin], in the data set on dhBMECs monolayers, the “concentrations for membrane activity” value lay within 1 to 10 µM. Further, in the data set with dhBMECs monolayers (5 μM melittin for 90 minutes, transwell), the “500 kDa dextran permeability across dhBMECs” value is “increased”. Besides, the “concentration above which disruption is induced in confluent monolayers” value in the data set with dhBMECs monolayers (confluent dhBMEC monolayers) is recorded as “above 1 μM”. In the data set on dhBMECs monolayers (dhBMECs on glass slides, 5 μM melittin for 90 minutes), the “cell morphology (phase contrast)” value was “cell swelling and detachment”. Also, the monolayer integrity result in data set [1] (450 μM·minute dose) is recorded as “significant cell detachment was observed”. For the same compound, the “ZO1 protein expression compared to controls” value in data set [1] (doses of 3-100 μM·minute) is on record as “did not result in large changes”.
